# Results published in PubChem BioAssay AID192 (DTP/NCI, 2004).
# “And” between values parts separate entries of the source, which are not always exact repeats. Identical values can stand only once. Toxic doses and inconclusive results are not listed.
# Test system: BDF1 mice, B16 melanoma ip, median survival T/C
# Assay: NCI In Vivo Anticancer Drug Screen. Data for tumor model B16 Melanoma (intraperitoneal) in B6D2F1 (BDF1) mice
# Conditions: endpoint: median survival time, higher = longer survival
# Summary of the method: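 Transplantable tumor model; survival or tumor size measured; reported as T/C, treated over vehicle control.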
smiles,measurement,setting,value
COC(=O)C(CCCN)NC(=O)c1ccccc1 (stereo not given),T/C,"dose: 50.0 mg/kg/injection, schedule: Q01DX009 (ip), vehicle: saline",95 % of control
same,T/C,"dose: 100.0 mg/kg/injection, schedule: Q01DX009 (ip), vehicle: saline",102 % of control
same,T/C,"dose: 200.0 mg/kg/injection, schedule: Q01DX009 (ip), vehicle: saline",107 % of control
same,T/C,"dose: 400.0 mg/kg/injection, schedule: Q01DX009 (ip), vehicle: saline",97 % of control
O=S(=O)(O)O.[NH-]C1CCCCC1[NH-].[Pt+2] (stereo not given),T/C,"dose: 0.32 mg/kg/injection, schedule: Q01DX009 (ip), vehicle: water",156 % of control and 167 % of control
same,T/C,"dose: 0.63 mg/kg/injection, schedule: Q01DX009 (ip), vehicle: dextrose",175 % of control
same,T/C,"dose: 0.63 mg/kg/injection, schedule: Q04DX003 (ip), vehicle: water",160 % of control
same,T/C,"dose: 1.25 mg/kg/injection, schedule: Q01DX009 (ip), vehicle: dextrose",163 % of control
same,T/C,"dose: 1.25 mg/kg/injection, schedule: Q04DX003 (ip), vehicle: water",163 % of control
same,T/C,"dose: 3.0 mg/kg/injection, schedule: Q01DX009 (ip), vehicle: water",150 % of control
same,T/C,"dose: 4.0 mg/kg/injection, schedule: Q01DX009 (ip), vehicle: water",150 % of control
same,T/C,"dose: 5.0 mg/kg/injection, schedule: Q04DX003 (ip), vehicle: water",155 % of control
CC(=O)OC1CC(O)C23COC(O)C1(C)C2CC(O)C1(C)C3C(=O)C(O)C2(C)C(c3ccoc3)CC3OC321 (stereo not given),T/C,"dose: 0.13 mg/kg/injection, schedule: Q01DX009 (ip), vehicle: saline + alcohol",111 % of control
same,T/C,"dose: 0.25 mg/kg/injection, schedule: Q01DX009 (ip), vehicle: saline + alcohol",102 % of control
same,T/C,"dose: 0.5 mg/kg/injection, schedule: Q01DX009 (ip), vehicle: saline + alcohol",115 % of control
same,T/C,"dose: 1.0 mg/kg/injection, schedule: Q01DX009 (ip), vehicle: saline + alcohol",98 % of control
CC(=O)O[C@H]1[C@H]2O[C@]23[C@@H]2CC[C@@H]4C[C@@H](O)CC[C@]4(C)[C@H]2CC[C@]3(C)[C@H]1c1ccc(=O)oc1,T/C,"dose: 3.75 mg/kg/injection, schedule: Q01DX009 (ip), vehicle: saline with Tween-80",92 % of control
same,T/C,"dose: 7.5 mg/kg/injection, schedule: Q01DX009 (ip), vehicle: saline with Tween-80",90 % of control
COc1cc2cc(c1Cl)N(C)C(=O)CC(OC(=O)CC(C)C)C1(C)OC1C(C)C1CC(O)(NC(=O)O1)C(OC)/C=C/C=C(C)C2 (stereo not given),T/C,"dose: 3.1 micrograms/kg/injection, schedule: Q01DX009 (ip), vehicle: saline + alcohol",122 % of control
same,T/C,"dose: 6.25 micrograms/kg/injection, schedule: Q01DX009 (ip), vehicle: saline + alcohol",150 % of control and 160 % of control
same,T/C,"dose: 12.5 micrograms/kg/injection, schedule: Q01DX009 (ip), vehicle: saline + alcohol",157 % of control and 169 % of control and 173 % of control
same,T/C,"dose: 15.0 micrograms/kg/injection, schedule: Q01DX009 (ip), vehicle: saline + alcohol",170 % of control
same,T/C,"dose: 25.0 micrograms/kg/injection, schedule: Q01DX009 (ip), vehicle: saline + alcohol",164 % of control and 168 % of control and 183 % of control
same,T/C,"dose: 30.0 micrograms/kg/injection, schedule: Q01DX009 (ip), vehicle: saline + alcohol",179 % of control
same,T/C,"dose: 50.0 micrograms/kg/injection, schedule: Q01DX009 (ip), vehicle: saline + alcohol",163 % of control
same,T/C,"dose: 60.0 micrograms/kg/injection, schedule: Q01DX009 (ip), vehicle: saline + alcohol",191 % of control
Nc1nc(N)c2c(Cl)c(CNc3ccc(Cl)c(Cl)c3)ccc2n1,T/C,"dose: 0.5 mg/kg/injection, schedule: Q01DX009 (ip), vehicle: saline with Tween-80",98 % of control
same,T/C,"dose: 1.0 mg/kg/injection, schedule: Q01DX009 (ip), vehicle: saline with Tween-80",96 % of control
same,T/C,"dose: 2.0 mg/kg/injection, schedule: Q01DX009 (ip), vehicle: saline with Tween-80",113 % of control
same,T/C,"dose: 4.0 mg/kg/injection, schedule: Q01DX009 (ip), vehicle: saline with Tween-80",107 % of control
